According to ChEMBL document CHEMBL1201862, “PubChem BioAssay data set” (2004):
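All cell lines were grown in 96-well plates and treated with compound for 48 hours. The concentration for 50% growth inhibition is given as GI50.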 Active and inactive are the calls of the source. No stated cut-off is given here; in the data, active = GI50 up to about 1.1 µM and inactive = higher.

Assays:
Test in all cases: DTP human tumour cell line panel, 48 h
[1] = test system: SR
[2] = test system: NCI-H460
[3] = test system: CAKI-1
[4] = test system: SK-MEL-2
[5] = test system: MDA-N
[6] = test system: SK-MEL-28
[7] = test system: LOX IMVI
[8] = test system: OVCAR-8
[9] = test system: HCC 2998
[10] = test system: NCI/ADR-RES
[11] = test system: HOP-62
[12] = test system: SK-MEL-5
[13] = test system: BT-549
[14] = test system: SF-295
[15] = test system: NCI-H226
[16] = test system: UACC-62
[17] = test system: Malme-3M
[18] = test system: UO-31
[19] = test system: HT-29
[20] = test system: TK-10
[21] = test system: HL-60
[22] = test system: K562
[23] = test system: MCF7
[24] = test system: HOP-92
[25] = test system: IGROV-1
[26] = test system: SNB-75
[27] = test system: CCRF-CEM
[28] = test system: SF-539
[29] = test system: SNB-19
[30] = test system: Hs-578T
[31] = test system: SK-OV-3
[32] = test system: ACHN
[33] = test system: SW-620
[34] = test system: SF-268
[35] = test system: EKVX
[36] = test system: MDA-MB-231
[37] = test system: SN12C
[38] = test system: PC-3
[39] = test system: A498
[40] = test system: UACC-257
[41] = test system: MOLT-4
[42] = test system: HCT-116
[43] = test system: OVCAR-5
[44] = test system: KM12
[45] = test system: OVCAR-3
[46] = test system: DU-145
[47] = test system: COLO 205
[48] = test system: MDA-MB-435
[49] = test system: RXF 393
[50] = test system: 786-0
[51] = test system: A549
[52] = test system: OVCAR-4
[53] = test system: HCT-15
[54] = test system: M14

For Cc1cc(NS(=O)(=O)c2ccc(NO)cc2)no1, which GI50 [1] is on record?
The GI50 was 23.4 µM (inactive).

What about the GI50 [2] of the same compound?
Its GI50 is > 100 µM (inactive).

And the GI50 [3]?
The GI50 was > 100 µM (inactive).

And the GI50 [4]?
The GI50 was > 100 µM (inactive).

What about the GI50 [5] of the same compound?
Its GI50 is 20.7 µM (inactive).

What about the GI50 [6] of the same compound?
The GI50 was > 100 µM (inactive).

And the GI50 [7]?
Its GI50 is 17.9 µM (inactive).

What about the GI50 [8] of the same compound?
The GI50 was 41.1 µM (inactive).

And the GI50 [9]?
The GI50 was > 100 µM (inactive).

What about the GI50 [10] of the same compound?
The GI50 was 39.5 µM (inactive).

And the GI50 [11]?
The GI50 was > 100 µM (inactive).

What about the GI50 [12] of the same compound?
The GI50 was > 100 µM (inactive).

What about the GI50 [13] of the same compound?
The GI50 was > 100 µM (inactive).

What about the GI50 [14] of the same compound?
Its GI50 is > 10 µM (inactive).

What about the GI50 [15] of the same compound?
The GI50 was > 100 µM (inactive).

And the GI50 [16]?
The GI50 was 56.6 µM (inactive).

And the GI50 [17]?
The GI50 was > 100 µM (inactive).

What about the GI50 [18] of the same compound?
The GI50 was > 100 µM (inactive).

And the GI50 [19]?
Its GI50 is 41.3 µM (inactive).

What about the GI50 [20] of the same compound?
The GI50 was > 100 µM (inactive).

What about the GI50 [21] of the same compound?
Its GI50 is > 100 µM (inactive).

What about the GI50 [22] of the same compound?
The GI50 was 14.7 µM (inactive).

What about the GI50 [23] of the same compound?
The GI50 was 22 µM (inactive).

And the GI50 [24]?
Its GI50 is > 100 µM (inactive).

What about the GI50 [25] of the same compound?
The GI50 was > 100 µM (inactive).

And the GI50 [26]?
The GI50 was 43.7 µM (inactive).

And the GI50 [27]?
Its GI50 is 8.65 µM (inactive).

What about the GI50 [28] of the same compound?
The GI50 was 35.1 µM (inactive).

And the GI50 [29]?
Its GI50 is > 100 µM (inactive).

And the GI50 [30]?
Its GI50 is > 100 µM (inactive).

What about the GI50 [31] of the same compound?
The GI50 was > 100 µM (inactive).

What about the GI50 [32] of the same compound?
Its GI50 is > 100 µM (inactive).

What about the GI50 [33] of the same compound?
The GI50 was 29.2 µM (inactive).

And the GI50 [34]?
Its GI50 is > 100 µM (inactive).

And the GI50 [35]?
The GI50 was > 100 µM (inactive).

What about the GI50 [36] of the same compound?
The GI50 was 34.7 µM (inactive).

What about the GI50 [37] of the same compound?
The GI50 was 19.5 µM (inactive).

And the GI50 [38]?
The GI50 was > 100 µM (inactive).

What about the GI50 [39] of the same compound?
Its GI50 is > 100 µM (inactive).

What about the GI50 [40] of the same compound?
Its GI50 is > 100 µM (inactive).

What about the GI50 [41] of the same compound?
The GI50 was 43 µM (inactive).

What about the GI50 [42] of the same compound?
Its GI50 is 28.5 µM (inactive).

And the GI50 [43]?
The GI50 was > 100 µM (inactive).

What about the GI50 [44] of the same compound?
Its GI50 is 63.4 µM (inactive).

What about the GI50 [45] of the same compound?
Its GI50 is > 100 µM (inactive).

And the GI50 [46]?
Its GI50 is > 100 µM (inactive).

And the GI50 [47]?
Its GI50 is > 100 µM (inactive).

And the GI50 [48]?
The GI50 was 19.5 µM (inactive).

What about the GI50 [49] of the same compound?
Its GI50 is > 100 µM (inactive).

What about the GI50 [50] of the same compound?
Its GI50 is 33 µM (inactive).

And the GI50 [51]?
The GI50 was > 100 µM (inactive).

And the GI50 [52]?
Its GI50 is 67.3 µM (inactive).

What about the GI50 [53] of the same compound?
The GI50 was 32.4 µM.

And the GI50 [54]?
Its GI50 is 70.6 µM (inactive).
